Reference: paper PMC9594046, “Identification of Histone Peptide Binding Specificity and Small-Molecule Ligands for the TRIM33α and TRIM33β Bromodomains” (ACS Chemical Biology, 2022)
Positions count from the first letter of the chain named.

What was measured:
[1] = target: TRIM24 BRD; conditions: read-out: TRIM24 Kd (ITC); cited from earlier work
[2] = target: BRPF1 BRD; conditions: read-out: BRPF Kd (ITC); cited from earlier work
[3] = target: T1, TRIM24 PHD-BRD (Homo sapiens, UniProt O15164); experiment: AlphaScreen dose-response displacement of biotinylated H3 peptide
T1 sequence (O15164 with tags, fused parts or gaps): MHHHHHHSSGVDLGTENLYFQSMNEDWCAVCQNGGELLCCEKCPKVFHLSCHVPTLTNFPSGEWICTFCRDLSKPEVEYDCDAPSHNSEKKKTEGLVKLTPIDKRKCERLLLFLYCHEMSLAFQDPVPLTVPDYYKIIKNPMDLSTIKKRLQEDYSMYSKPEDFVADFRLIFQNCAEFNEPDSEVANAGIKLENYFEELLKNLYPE
Procedure: (§5) To establish an AlphaScreen assay,[13],[50],[51] the PHD-BRD cassettes of TRIM24 and both TRIM33 isoforms were expressed with an N-terminal His6 tag attached (CD spectra for these constructs are shown in Figure S9).
(§6) Assay buffer was freshly prepared each day by supplementing HEPES buffer with BSA, the pH was
(§7) adjusted to 7.6 and filter sterilized through a 0.22 µm filter, and stored at 4 °C until use.
(§8) steps, the plate was sealed, shaken for 10 sec at 600 rpm on a plate oscillator, and incubated at room
(§9) in triplicate, as point concentrations or serial buffer dilutions from 50 mM DMSO solutions.
(§10) peptide mix (7 µL) was dispensed into each well using a Thermo-Fisher electronic multi-channel
(§11) pipette, and incubated for 30 min. AlphaScreen bead mix (8 µL; 25 µg/mL of acceptor and donor beads)
(§12) was added to each well, taking adequate precautions to avoid light exposure, before being incubated for
(§13) 1 h. The plate was read using a Synergy™ 2 MultiMode Microplate Reader using the built-in
(§14) Single shot screening was performed in triplicate.
(§15) <0.5% DMSO. Inhibition is reported as a reduction in signal arising from peptide-bromodomain
(§16) interaction, normalised to a DMSO control. Signal response curves were obtained for peptides or
(§17) compounds in triplicate, with serial 1:2 dilutions. Samples containing buffer or DMSO in place of
(§18) compound were included in all assays for normalisation. Data were processed by fitting a four-
(§19) parameter equation shown below to calculate IC50 values using GraFit version 7.0.32 or GraphPad Prism
(§20) 𝑌 = 𝑀𝑖𝑛𝑖𝑚𝑢𝑚 + 𝑀𝑎𝑥𝑖𝑚𝑢𝑚 − 𝑚𝑖𝑛𝑖𝑚𝑢𝑚 ,𝑤ℎ𝑒𝑟𝑒 𝑋 = log (𝑐𝑜𝑚𝑝𝑜𝑢𝑛𝑑 𝑐𝑜𝑛𝑐𝑒𝑛𝑡𝑟𝑎𝑡𝑖𝑜𝑛) 1 + 10("#$%&!"’()(*+,, .,/01)
(§21) Assay buffer was prepared as above. For incubation steps, the plate was sealed, shaken for 10 sec at
(§22) 600 rpm on a plate oscillator, and incubated at room temperature in the dark. Peptides (5 µL) were
(§23) dilutions from 100 µM HEPES buffer stock solutions. Protein (7 µL) was dispensed into each well
(§24) using a Thermo-Fisher electronic multi-channel pipette, and incubated for 30 min. AlphaScreen bead
(§25) mix (8 µL; 25 µg/mL of acceptor and donor beads) was added to each well, avoiding light exposure,
(§26) before being incubated for 1 h. The plate was read using a Synergy™ 2 MultiMode Microplate Reader
(§27) Ni2+ chelate acceptor and streptavidin donor beads were prepared as a mixture in a 1:300 or 1:400
(§28) dilution as required (0.005–0.007 mg/mL FAC); biotinylated peptide employed, and final assay
(§29) concentrations were as detailed in table below. Assay well volume was 20 µL.
(§30) Peptides were supplied as 1–9 mg quantities with >95% purity (as determined by HPLC; Cambridge
(§31) Research Biochemicals or Genscript). Residual water and counter ions were predicted to comprise 20%
(§32) of the net mass, and peptides were dissolved to 10, 1.0, and 0.1 mM stocks in buffer (50 mM HEPES,
(§33) 500 mM NaCl; pH 7.6) before being stored at -80 °C in 5 µL aliquots. A terminal tyrosine residue was
(§34) incorporated into the peptide structure to allow for accurate quantification of concentration.

[4] = target: T2, TRIM33α PHD-BRD (Homo sapiens, UniProt Q9UPN9); experiment: as above; conditions: for IC50: TRIM33α IC50 (AlphaScreen)
T2 sequence (Q9UPN9 888-1127): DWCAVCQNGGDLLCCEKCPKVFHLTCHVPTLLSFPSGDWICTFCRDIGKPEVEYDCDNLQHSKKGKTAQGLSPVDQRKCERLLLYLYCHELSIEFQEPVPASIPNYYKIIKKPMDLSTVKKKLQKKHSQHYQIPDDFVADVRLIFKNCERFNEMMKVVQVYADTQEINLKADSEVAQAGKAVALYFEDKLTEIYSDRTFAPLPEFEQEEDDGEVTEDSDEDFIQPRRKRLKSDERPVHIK
Procedure: as §5, §6, §7, §8, §9, §10, §11, §12, §13, §14, §15, §16, §17, §18, §19, §20, §21, §22, §23, §24, §25, §26, §27, §28, §29, §30, §31, §32, §33, §34

[5] = system: TRIM33; parameters: method as in earlier work; conditions: isoform later confirmed to be TRIM33α; read-out: reported TRIM33 IC50 (AlphaScreen); cited from earlier work
[6] = target: T3, TRIM33β PHD-BRD (Homo sapiens, UniProt Q9UPN9); experiment: AlphaScreen dose-response displacement of biotinylated H3 peptide
T3 sequence (Q9UPN9 888-1110 isoform Q9UPN9-2 limits assumed): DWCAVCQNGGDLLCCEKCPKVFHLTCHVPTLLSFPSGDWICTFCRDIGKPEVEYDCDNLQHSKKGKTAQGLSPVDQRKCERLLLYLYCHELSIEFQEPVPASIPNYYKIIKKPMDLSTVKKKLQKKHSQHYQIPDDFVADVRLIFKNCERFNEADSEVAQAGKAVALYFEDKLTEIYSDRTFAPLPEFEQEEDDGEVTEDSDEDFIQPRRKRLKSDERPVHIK
Procedure: as §5, §6, §7, §8, §9, §10, §11, §12, §13, §14, §15, §16, §17, §18, §19, §20, §21, §22, §23, §24, §25, §26, §27, §28, §29, §30, §31, §32, §33, §34

[7] = target: T3, TRIM33β PHD-BRD; experiment: Isothermal titration calorimetry (ITC); type: binding; parameters: The TRIM33β cassette (residues 888–1127) was expressed; made in house; host or cells: E. coli BL21 (DE3) Gold; conditions: cell 40 µM compound, syringe 316 µM TRIM33β
Excerpt: The first data point was excluded from the analysis.
(1 picture or pasted object on this page, not shown here)

[8] = target: T4, TRIM24 N980F (Homo sapiens, UniProt O15164, N980F); experiment: Qualitative WaterLOGSY binding; parameters: key: ✓: √ is assigned to compounds that showed binding; ? is assigned when the result was ambiguous; × is assigned when no-binding was observed; conditions: 500 µM compound, 20 µM protein
T4 sequence (O15164 825-1007 N980F limits assumed): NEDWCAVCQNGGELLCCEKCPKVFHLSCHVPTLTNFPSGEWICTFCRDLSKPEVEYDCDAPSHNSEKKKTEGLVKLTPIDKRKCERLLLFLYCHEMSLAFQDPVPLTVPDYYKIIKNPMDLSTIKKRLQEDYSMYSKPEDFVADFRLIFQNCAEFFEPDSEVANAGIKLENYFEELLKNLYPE
Procedure: (§1) To investigate where these compounds bind on the TRIM24 or 33 PHD-BRD cassette, we performed waterLOGSY experiments using the wild-type and mutant reader domains (Table 4).
(§2) Table S19. WaterLOGSY buffer composition (10 mM Na/K phosphate buffer, PBS, pH 7.6).
(§3) Reagent Amount required per litre (g)
(§4) The buffer was filtered under vacuum through a 0.2 µm filter paper (Sartorius UK) before use and stored at 4 °C. Proteins were buffer exchanged from HEPES storage buffer into PBS buffer (0.9% NaCl, pH 7.6) using GE Healthcare PD SpinTrap G-25 columns. For each compound, a water-suppressed 1H spectrum was recorded as a reference, followed by waterLOGSY spectra of the compound in the absence and presence of the specified protein. Samples were prepared to a total sample volume of 160 µL in PBS buffer (pH 7.6), with 500 µM compound (unless otherwise specified) from 50 mM DMSO-D6 stock solutions, 10% D2O for signal locking, and 20 µM protein (unless otherwise specified) for samples with protein. After loading into 3 mm Hilgenberg NMR tubes for Bruker Match™ system, samples were briefly centrifuged in a manual benchtop rotor. Spectra were recorded on a Bruker AVIII 700 MHz spectrometer with inverse TCI cryoprobe using a standard waterLOGSY pulse sequence.4 Peaks were assigned using DMSO-D6 as a reference peak at 2.5 ppm.

[9] = target: T5, TRIM24 WT (Homo sapiens, UniProt O15164); experiment: Qualitative WaterLOGSY binding; parameters: key: ✓: √ is assigned to compounds that showed binding; ? is assigned when the result was ambiguous; × is assigned when no-binding was observed; conditions: 500 µM compound, 20 µM protein
T5 construct: His6-TRIM24 (BRD-PHD); made in house; host or cells: E. coli BL21 (DE3) Gold
T5 sequence (O15164 with tags, fused parts or gaps): T1 sequence (O15164 with tags, fused parts or gaps)
Procedure: as §1, §2, §3, §4

[10] = target: T6, TRIM33α N1039F (Homo sapiens, UniProt Q9UPN9, N1039F); experiment: Qualitative WaterLOGSY binding; parameters: key: ✓: √ is assigned to compounds that showed binding; ? is assigned when the result was ambiguous; × is assigned when no-binding was observed; conditions: 500 µM compound, 20 µM protein
T6 construct: The TRIM33β cassette (residues 888–1127) was expressed; made in house; host or cells: E. coli BL21 (DE3) Gold
T6 sequence (Q9UPN9 888-1127 N1039F): T2 sequence (Q9UPN9 888-1127) with N152F
Procedure: as §1, §2, §3, §4

[11] = target: T7, TRIM33α WT (Homo sapiens, UniProt Q9UPN9); experiment: Qualitative WaterLOGSY binding; parameters: key: ✓: √ is assigned to compounds that showed binding; ? is assigned when the result was ambiguous; × is assigned when no-binding was observed; conditions: 500 µM compound, 20 µM protein
T7 construct: The TRIM33β cassette (residues 888–1127) was expressed; made in house; host or cells: E. coli BL21 (DE3) Gold
T7 sequence (Q9UPN9 888-1127): T2 sequence (Q9UPN9 888-1127)
Procedure: as §1, §2, §3, §4

[12] = target: T8, TRIM33β N1039F (Homo sapiens, UniProt Q9UPN9, N1039F); experiment: Qualitative WaterLOGSY binding; parameters: key: ✓: √ is assigned to compounds that showed binding; ? is assigned when the result was ambiguous; × is assigned when no-binding was observed; conditions: 500 µM compound, 20 µM protein
T8 construct: The TRIM33β cassette (residues 888–1127) was expressed; made in house; host or cells: E. coli BL21 (DE3) Gold
T8 sequence (Q9UPN9 888-1110 isoform Q9UPN9-2 N1039F): T3 sequence (Q9UPN9 888-1110 isoform Q9UPN9-2 limits assumed) with N152F
Procedure: as §1, §2, §3, §4

[13] = target: T9, TRIM33β WT (Homo sapiens, UniProt Q9UPN9); experiment: Qualitative WaterLOGSY binding; parameters: key: ✓: √ is assigned to compounds that showed binding; ? is assigned when the result was ambiguous; × is assigned when no-binding was observed; conditions: 500 µM compound, 20 µM protein
T9 construct: The TRIM33β cassette (residues 888–1127) was expressed; made in house; host or cells: E. coli BL21 (DE3) Gold
T9 sequence (Q9UPN9 888-1110 isoform Q9UPN9-2 limits assumed): T3 sequence (Q9UPN9 888-1110 isoform Q9UPN9-2 limits assumed)
Excerpt: To determine whether compounds 3–7 are genuine ligands for TRIM33, we employed an AlphaScreen TruHits screen.[58] The TruHits screen includes streptavidin-coated donor beads and biotinylated acceptor beads, which interact to generate a signal. Compounds that interfere with this control signal, such as fluorescence quenchers, insoluble light scatterers, ^1O2 quenchers, and biotin mimetics, can be identified using this approach. In the TruHits screen,[59] significant assay interference was observed from all five compounds (3–7, Table S21), meaning that AlphaScreen data generated for these compounds are unreliable. We therefore sought to investigate TRIM33 binding of compounds 3 and 4 using ITC and waterLOGSY approaches (Figures S3–6). These compounds were selected as they have a range of reported IC50 values for TRIM33. […] To determine whether these compounds are weak binders to TRIM33β, we subjected them to a waterLOGSY assay against TRIM33β. […] However, the use of different protein isoforms may account for some of the observed discrepancies.
as §1, §2, §3, §4

[14] = TRIM24 IC50 (AlphaScreen), peptide in assay H31-27K9Me3 (PHD)
[15] = TRIM24 IC50 (AlphaScreen), peptide in assay H31-27K9Me3K18Ac (DUAL)
[16] = TRIM24 IC50 (AlphaScreen), peptide in assay H31-27K18Ac (BRD)
[17] = peptide in assay H31-27K9Me3 (PHD)
[18] = peptide in assay H31-27K9Me3K18Ac (DUAL)
[19] = peptide in assay H31-27K18Ac (BRD)

| Structure (SMILES) | IC50 [3, 14] | IC50 [3, 15] | IC50 [3, 16] | IC50 [4, 17] | IC50 [4, 18] | IC50 [4, 19] | IC50 [6, 17] | IC50 [6, 18] | IC50 [6, 19] | WaterLOGSY binding TRIM24 N980F [8] | WaterLOGSY binding TRIM24 WT [9] | WaterLOGSY binding TRIM33α N1039F [10] | WaterLOGSY binding TRIM33α WT [11] | WaterLOGSY binding TRIM33β N1039F [12] | WaterLOGSY binding TRIM33β WT [13] | also measured |
| --- | --- | --- | --- | --- | --- | --- | --- | --- | --- | --- | --- | --- | --- | --- | --- | --- |
| COc1ccc(Oc2cc3c(cc2NS(=O)(=O)c2ccc(OC)c(OC)c2)n(C)c(=O)n3C)cc1 [Compound 2] | – | – | – | – | – | – | – | – | – | – | – | – | – | – | – | Kd [1]: 0.222 µM; Kd [2]: 0.137 µM; IC50 ([3]; IC50 binding to the TRIM24 BRD-PHD (AlphaScreen), displacement of H3_1–27K18Ac): 0.219 µM; displacement of H3_1–27K18Ac from TRIM33α (AlphaScreen) [4]: not for either isoform of TRIM33 |
| COc1ccc(Nc2c(-c3[nH]cnc3C)nc3ccc(Br)cn23)cc1 [Compound 3] | 1.86 µM | 1.46 µM | 1.76 µM | 1.89 µM | 1.15 µM | 1.58 µM | 1.4 µM | 1.82 µM | 1.49 µM | – | – | – | – | – | – | IC50 [5]: 0.538 µM; binding to TRIM33β by ITC [7]: Neither compound showed binding |
| Cc1nc[nH]c1-c1nc2ccccn2c1NCCN1CCOCC1 [Compound 4] | 52 µM | 23.1 µM | 18.6 µM | > 250 µM | > 250 µM | > 250 µM | > 250 µM | 58.7 µM | 55.3 µM | – | – | – | – | – | – | IC50 [5]: 3.78 µM; binding to TRIM33β by ITC [7]: Neither compound showed binding |
| Cc1nc[nH]c1-c1nc2ccccn2c1NC1CCCCC1 [Compound 5] | 3.57 µM | 3.32 µM | 4.21 µM | 2.71 µM | 1.68 µM | 2.74 µM | 3.37 µM | 3.11 µM | 3.16 µM | – | – | – | – | – | – | – |
| COC(=O)c1ccc2nc(-c3c[nH]c(C)n3)c(NC3CCCCC3)n2c1 [Compound 6] | 17.1 µM | 11.1 µM | 20 µM | > 250 µM | 75.1 µM | 16.6 µM | 6.69 µM | 8.86 µM | 7.91 µM | – | – | – | – | – | – | – |
| CC(C)(C)Nc1c(-c2c[nH]c3ncccc23)nc2ccccn12 [Compound 7] | 105 µM | 58 µM | 43.8 µM | > 250 µM | > 250 µM | > 250 µM | > 250 µM | > 250 µM | > 250 µM | – | – | – | – | – | – | – |
| Cn1c(=O)n(C)c2cc(CNCCc3ccc(S(N)(=O)=O)cc3)ccc21 [Compound 8] | – | – | – | – | – | – | – | – | – | × | ✓ | ✓ | ✓ | ? | ✓ | – |
| O=C(CN1CCOC(c2cncc(-c3cccc(F)c3)n2)C1)NCc1ccccn1 (stereo not drawn) [Compound 9] | – | – | – | – | – | – | – | – | – | × | × | ✓ | ✓ | × | ✓ | – |
| O=C(Nc1ccccc1)Nc1ccc2cccnc2c1 [Compound 10] | – | – | – | – | – | – | – | – | – | ✓ | ✓ | ✓ | ✓ | ✓ | ✓ | – |
| Cc1cc2c(NC(=O)Nc3ccccc3)cccc2nn1 [Compound 11] | – | – | – | – | – | – | – | – | – | ✓ | ✓ | ✓ | ✓ | ✓ | ✓ | – |
| CCCOc1cc(OCCCCN(C)C)cc(Oc2cc3c(cc2NS(=O)(=O)c2ccc(OC)c(OC)c2)n(C)c(=O)n3C)c1 [IACS-9571] | – | – | – | – | – | – | – | – | – | – | – | – | – | – | – | Kd [2]: 0.014 µM |
